Experimental data taken from PubChem BioAssay (NCI).
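Protocol summary: plate cells (96-well), add compound at 5 concentrations, incubate 48 h, interpolate endpoints linearly. The concentration for 50% growth inhibition is given as GI50. TGI denotes the concentration required for complete inhibition of growth.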

What was measured:
Assay in all cases: NCI tumour cell line growth inhibition, 48 h
M14 melanoma = test system: M14 melanoma
SNB-75 CNS = test system: SNB-75 CNS
MALME-3M melanoma = test system: MALME-3M melanoma
UO-31 renal = test system: UO-31 renal
SF-295 CNS = test system: SF-295 CNS
RPMI-8226 leukemia = test system: RPMI-8226 leukemia
NCI/ADR-RES ovarian = test system: NCI/ADR-RES ovarian
786-0 renal = test system: 786-0 renal
EKVX NSCLC = test system: EKVX NSCLC
MOLT-4 leukemia = test system: MOLT-4 leukemia
SK-OV-3 ovarian = test system: SK-OV-3 ovarian
HL-60(TB) leukemia = test system: HL-60(TB) leukemia
A498 renal = test system: A498 renal
SF-539 CNS = test system: SF-539 CNS
PC-3 prostate = test system: PC-3 prostate
OVCAR-8 ovarian = test system: OVCAR-8 ovarian
K-562 leukemia = test system: K-562 leukemia
SR leukemia = test system: SR leukemia
BT-549 breast = test system: BT-549 breast
UACC-62 melanoma = test system: UACC-62 melanoma
CAKI-1 renal = test system: CAKI-1 renal
HT29 colon = test system: HT29 colon
NCI-H460 lung = test system: NCI-H460 lung
SW-620 colon = test system: SW-620 colon
COLO 205 colon = test system: COLO 205 colon
TK-10 renal = test system: TK-10 renal
T-47D breast = test system: T-47D breast
NCI-H23 lung = test system: NCI-H23 lung
A549 NSCLC = test system: A549 NSCLC
CCRF-CEM leukemia = test system: CCRF-CEM leukemia
IGROV1 ovarian = test system: IGROV1 ovarian
KM12 colon = test system: KM12 colon
LOX IMVI melanoma = test system: LOX IMVI melanoma
SN12C renal = test system: SN12C renal
NCI-H226 lung = test system: NCI-H226 lung
MCF7 breast = test system: MCF7 breast
MDA-MB-435 = test system: MDA-MB-435
SNB-19 CNS = test system: SNB-19 CNS
UACC-257 melanoma = test system: UACC-257 melanoma
SK-MEL-5 melanoma = test system: SK-MEL-5 melanoma
OVCAR-5 ovarian = test system: OVCAR-5 ovarian
OVCAR-4 ovarian = test system: OVCAR-4 ovarian
ACHN renal = test system: ACHN renal
HS 578T breast = test system: HS 578T breast
U251 CNS = test system: U251 CNS
SF-268 CNS = test system: SF-268 CNS
RXF 393 renal = test system: RXF 393 renal
HCT-116 colon = test system: HCT-116 colon
HCC-2998 colon = test system: HCC-2998 colon
HOP-92 NSCLC = test system: HOP-92 NSCLC
MDA-MB-231 breast = test system: MDA-MB-231 breast
HOP-62 NSCLC = test system: HOP-62 NSCLC
NCI-H522 lung = test system: NCI-H522 lung
SK-MEL-28 melanoma = test system: SK-MEL-28 melanoma
HCT-15 colon = test system: HCT-15 colon
OVCAR-3 ovarian = test system: OVCAR-3 ovarian
DU-145 prostate = test system: DU-145 prostate

COc1ccc([C@@H]2[C@@H](O)C(=O)N2c2cc(OC)c(OC)c(OC)c2)cc1Cl
GI50 (M14 melanoma): < 17.1 nM
TGI (M14 melanoma): > 100000 nM
GI50 (SNB-75 CNS): 26.2 nM
TGI (SNB-75 CNS): > 100000 nM
GI50 (MALME-3M melanoma): 219 nM
TGI (MALME-3M melanoma): > 100000 nM
GI50 (UO-31 renal): < 23.6 nM
TGI (UO-31 renal): > 100000 nM
GI50 (SF-295 CNS): < 11.1 nM
TGI (SF-295 CNS): > 100000 nM
GI50 (RPMI-8226 leukemia): < 21.7 nM
GI50 (NCI/ADR-RES ovarian): < 15.2 nM
TGI (NCI/ADR-RES ovarian): 95.9 nM
GI50 (786-0 renal): < 19.8 nM
TGI (786-0 renal): > 100000 nM
TGI (EKVX NSCLC): > 100000 nM
GI50 (MOLT-4 leukemia): < 20 nM
TGI (MOLT-4 leukemia): > 100000 nM
GI50 (SK-OV-3 ovarian): < 22.9 nM
TGI (SK-OV-3 ovarian): > 51300 nM
GI50 (HL-60(TB) leukemia): < 15.9 nM
TGI (HL-60(TB) leukemia): 1830 nM
GI50 (A498 renal): 21700 nM
TGI (A498 renal): > 100000 nM
GI50 (SF-539 CNS): < 10 nM
TGI (SF-539 CNS): 49.1 nM
GI50 (PC-3 prostate): < 19.7 nM
TGI (PC-3 prostate): > 100000 nM
GI50 (OVCAR-8 ovarian): < 17.9 nM
GI50 (K-562 leukemia): < 14.3 nM
TGI (K-562 leukemia): > 100000 nM
GI50 (SR leukemia): < 10.7 nM
TGI (SR leukemia): > 100000 nM
GI50 (BT-549 breast): < 14.4 nM
TGI (BT-549 breast): 66.8 nM
GI50 (UACC-62 melanoma): < 10 nM
TGI (UACC-62 melanoma): > 100000 nM
GI50 (CAKI-1 renal): < 12.2 nM
GI50 (HT29 colon): < 10 nM
GI50 (NCI-H460 lung): < 18.9 nM
GI50 (SW-620 colon): < 19.2 nM
TGI (SW-620 colon): > 100000 nM
GI50 (COLO 205 colon): < 15.6 nM
TGI (COLO 205 colon): < 23.9 nM
GI50 (TK-10 renal): > 54900 nM
TGI (TK-10 renal): > 100000 nM
GI50 (T-47D breast): 33100 nM
TGI (T-47D breast): > 100000 nM
GI50 (NCI-H23 lung): 35.3 nM
TGI (NCI-H23 lung): > 100000 nM
GI50 (A549 NSCLC): < 19.3 nM
TGI (A549 NSCLC): > 100000 nM
GI50 (CCRF-CEM leukemia): < 18.5 nM
TGI (CCRF-CEM leukemia): > 100000 nM
GI50 (IGROV1 ovarian): < 20.3 nM
TGI (IGROV1 ovarian): > 100000 nM
GI50 (KM12 colon): < 16.3 nM
TGI (KM12 colon): > 100000 nM
GI50 (LOX IMVI melanoma): < 11.4 nM
TGI (LOX IMVI melanoma): > 100000 nM
GI50 (SN12C renal): < 19.3 nM
TGI (SN12C renal): > 100000 nM
GI50 (NCI-H226 lung): < 10 nM
TGI (NCI-H226 lung): 75.3 nM
GI50 (MCF7 breast): < 10 nM
TGI (MCF7 breast): > 92000 nM
GI50 (MDA-MB-435): < 10 nM
TGI (MDA-MB-435): 24.8 nM
GI50 (SNB-19 CNS): < 24.1 nM
TGI (SNB-19 CNS): > 100000 nM
GI50 (UACC-257 melanoma): > 100000 nM
TGI (UACC-257 melanoma): > 100000 nM
GI50 (SK-MEL-5 melanoma): < 14.9 nM
TGI (SK-MEL-5 melanoma): 38 nM
GI50 (OVCAR-5 ovarian): < 18.6 nM
TGI (OVCAR-5 ovarian): > 100000 nM
GI50 (OVCAR-4 ovarian): 2160 nM
TGI (OVCAR-4 ovarian): > 100000 nM
GI50 (ACHN renal): < 14.4 nM
TGI (ACHN renal): > 100000 nM
GI50 (HS 578T breast): < 22.6 nM
TGI (HS 578T breast): > 100000 nM
GI50 (U251 CNS): < 17.8 nM
TGI (U251 CNS): > 100000 nM
GI50 (SF-268 CNS): < 21.6 nM
TGI (SF-268 CNS): > 100000 nM
GI50 (RXF 393 renal): 43.1 nM
TGI (RXF 393 renal): > 100000 nM
GI50 (HCT-116 colon): < 14.9 nM
TGI (HCT-116 colon): > 100000 nM
GI50 (HCC-2998 colon): < 19.4 nM
GI50 (HOP-92 NSCLC): 16200 nM
TGI (HOP-92 NSCLC): > 100000 nM
GI50 (MDA-MB-231 breast): < 18.7 nM
TGI (MDA-MB-231 breast): > 100000 nM
GI50 (HOP-62 NSCLC): < 20.1 nM
TGI (HOP-62 NSCLC): > 100000 nM
GI50 (NCI-H522 lung): < 10 nM
TGI (NCI-H522 lung): < 17.2 nM
GI50 (SK-MEL-28 melanoma): 146 nM
TGI (SK-MEL-28 melanoma): > 100000 nM
GI50 (HCT-15 colon): < 16.9 nM
TGI (HCT-15 colon): > 100000 nM
GI50 (OVCAR-3 ovarian): < 10 nM
TGI (OVCAR-3 ovarian): 171 nM
GI50 (DU-145 prostate): < 19 nM
TGI (DU-145 prostate): > 100000 nM

CCCCOc1ccc(S(=O)(=O)N2CCN(c3nccc(N4CCOCC4)n3)CC2)cc1
GI50 (M14 melanoma): 2710 nM
TGI (M14 melanoma): > 100000 nM
GI50 (SNB-75 CNS): 1770 nM
TGI (SNB-75 CNS): 4390 nM
GI50 (RPMI-8226 leukemia): 422 nM
TGI (RPMI-8226 leukemia): 5590 nM
GI50 (NCI/ADR-RES ovarian): 2020 nM
TGI (NCI/ADR-RES ovarian): > 100000 nM
GI50 (786-0 renal): 2700 nM
TGI (786-0 renal): > 100000 nM
GI50 (MOLT-4 leukemia): 1400 nM
TGI (MOLT-4 leukemia): > 100000 nM
GI50 (SK-OV-3 ovarian): 2780 nM
TGI (SK-OV-3 ovarian): > 100000 nM
GI50 (HL-60(TB) leukemia): 476 nM
TGI (HL-60(TB) leukemia): > 100000 nM
GI50 (SF-539 CNS): 4090 nM
TGI (SF-539 CNS): > 100000 nM
GI50 (PC-3 prostate): 3150 nM
TGI (PC-3 prostate): > 100000 nM
GI50 (OVCAR-8 ovarian): 4040 nM
TGI (OVCAR-8 ovarian): > 100000 nM
GI50 (K-562 leukemia): 3300 nM
TGI (K-562 leukemia): > 100000 nM
GI50 (SR leukemia): 2770 nM
TGI (SR leukemia): > 100000 nM
GI50 (BT-549 breast): 2450 nM
TGI (BT-549 breast): > 100000 nM
GI50 (CAKI-1 renal): 1760 nM
TGI (CAKI-1 renal): > 100000 nM
GI50 (HT29 colon): 538 nM
TGI (HT29 colon): > 100000 nM
GI50 (NCI-H460 lung): 481 nM
TGI (NCI-H460 lung): > 100000 nM
GI50 (A549 NSCLC): 654 nM
TGI (A549 NSCLC): > 100000 nM
GI50 (CCRF-CEM leukemia): 3440 nM
TGI (CCRF-CEM leukemia): > 100000 nM
GI50 (KM12 colon): 1570 nM
TGI (KM12 colon): > 100000 nM
GI50 (MCF7 breast): > 100000 nM
TGI (MCF7 breast): > 100000 nM
GI50 (MDA-MB-435): 1500 nM
TGI (MDA-MB-435): > 100000 nM
GI50 (SNB-19 CNS): 6650 nM
TGI (SNB-19 CNS): > 100000 nM
GI50 (OVCAR-5 ovarian): > 100000 nM
TGI (OVCAR-5 ovarian): > 100000 nM
GI50 (OVCAR-4 ovarian): 4730 nM
TGI (OVCAR-4 ovarian): > 100000 nM
GI50 (ACHN renal): 1920 nM
TGI (ACHN renal): > 100000 nM
GI50 (HS 578T breast): 3020 nM
TGI (HS 578T breast): > 100000 nM
GI50 (HCT-116 colon): 484 nM
TGI (HCT-116 colon): > 100000 nM
GI50 (HCC-2998 colon): 1840 nM
TGI (HCC-2998 colon): > 100000 nM
GI50 (HOP-92 NSCLC): 1800 nM
TGI (HOP-92 NSCLC): 6910 nM
GI50 (HOP-62 NSCLC): 16300 nM
TGI (HOP-62 NSCLC): > 100000 nM
GI50 (NCI-H522 lung): > 100000 nM
TGI (NCI-H522 lung): > 100000 nM
GI50 (HCT-15 colon): 1710 nM
TGI (HCT-15 colon): > 100000 nM
GI50 (DU-145 prostate): 524 nM
TGI (DU-145 prostate): > 100000 nM
